Our source for the IC50 values is ChEMBL document CHEMBL1155749, “Five new polyoxygenated cholestane bisdesmosides from the bulbs of Galtonia candicans” (J Nat Prod, 2001).

One may read the IC50 as the point on the concentration scale where inhibition reaches its midpoint.

In brackets after ≈: the same amount, converted by molar mass.

In this assay the test system is HL-60. Nature of the assay: Cytotoxicity against human HL60 cells after 72 hrs by MTT assay. The assay is classed as functional, cell-based. The note with it: HL-60, 72 h. (In general: Formazan colour is commonly taken as a measure of viable cells.)

With `CC(=O)O[C@@H]1[C@@H](O)[C@H](C)O[C@@H](O[C@H]2C[C@H]3[C@@H]4CC=C5C[C@@H](O[C@@H]6O[C@H](CO)[C@@H](O)[C@H](O)[C@H]6O)CC[C@]5(C)[C@H]4CC[C@]3(C)[C@H]2[C@H](C)[C@@H](O)CC=C(C)C)[C@@H]1O`, the IC50 came to 6.8 µg/mL (≈ 8.87 µM).
Then `COc1cc([C@@H]2c3cc4c(cc3[C@@H](O[C@@H]3O[C@@H]5CO[C@@H](C)O[C@H]5[C@H](O)[C@H]3O)[C@H]3COC(=O)[C@H]23)OCO4)cc(OC)c1O` [ETOPOSIDE], with 0.25 µg/mL (≈ 0.425 µM).
